For two compounds, EC50 results are on record in patent publication US10407445B2, “Hepatitis C virus inhibitors” (ENANTA PHARMACEUTICALS, INC., priority 2013, dated 2019).

Each structure is given as a SMILES string. pEC50: −log10 of the molar value.

What all share (format): cell-based
Holding throughout (conditions): Hepatitis C virus

The subject of one test is GT2a-2a-J6 replicon. Put plainly: Stable replicon assay, comparison to daclatasvir, GT2a-2a-J6. An excerpt: The plasmid pSG-hRlucNeo-JFH1 was generated from pSG-Neo-JFH1 (Kato et al. 2003, Gastroentrology 125:1808-1817). A fragment containing the JFH-1 5′ NTR-hRluc-Neo gene and two unique restriction sites (AgeI and PmeI) was synthesized (Integrated DNA Technologies, Coralville, Iowa). The resulting plasmid was digested with AgeI and PmeI and the excised fragment (5′NTR-hRluc-Neo) was ligated into pSG-Neo-JFH1 digested with the same enzymes to generate pSG-hRlucNeo-JFH1. To allow expression of heterologous NS5A sequences, an NS5A shuttle vector was generated from pSG-Neo-JFH1, in which the entire coding sequence of NS5A plus the first eight codons of NS5B were replaced with an AfeI restriction site. This was done by Infusion cloning (Clontech, Mountain View, Calif.) from two PCR products that were generated using pSG-Neo-JFH1 as a template and the following primer pairs: […]
Stable HCV replicon cell lines were grown in complete media (Dulbecco's modified Eagle medium [DMEM], 2 mM L-glutamine, 0.1 mM essential amino acids, 1 mM sodium pyruvate, 10% fetal bovine serum) with the addition 500 μg/ml […] (G418). […] For stable and transient replicon assays, luciferase activity of compound-treated cells was measured relative to DMSO-treated cells after 72 h incubation using RENILLA-GLO™ Luciferase Assay (Promega). […]
On the technique in general: Replicon systems follow genome replication, usually without infectious particles.

The subject of test [1] is HCV genotype 1a replicon, NS5A Q30R. Briefly: Transient replication assay, GT1a NS5A Q30R.
Test [2] deals with HCV genotype 1a replicon, NS5A Q30R H58D. Briefly: Transient replication assay, GT1a NS5A Q30R H58D.
The next test relates to GT2a-6a-EUKH2 replicon. Briefly: Stable replicon assay, comparison to daclatasvir, GT2a-6a-EUKH2. An excerpt: The plasmid pSG-hRlucNeo-JFH1 was generated from pSG-Neo-JFH1 (Kato et al. 2003, Gastroentrology 125:1808-1817). A fragment containing the JFH-1 5′ NTR-hRluc-Neo gene and two unique restriction sites (AgeI and PmeI) was synthesized (Integrated DNA Technologies, Coralville, Iowa). The resulting plasmid was digested with AgeI and PmeI and the excised fragment (5′NTR-hRluc-Neo) was ligated into pSG-Neo-JFH1 digested with the same enzymes to generate pSG-hRlucNeo-JFH1. To allow expression of heterologous NS5A sequences, an NS5A shuttle vector was generated from pSG-Neo-JFH1, in which the entire coding sequence of NS5A plus the first eight codons of NS5B were replaced with an AfeI restriction site. This was done by Infusion cloning (Clontech, Mountain View, Calif.) from two PCR products that were generated using pSG-Neo-JFH1 as a template and the following primer pairs:
To express GT6a NS5A chimeric sequences a JFH1-based N-terminal NS5A (NS5A residues 2-107) shuttle vector was constructed by Infusion cloning from two PCR products that were generated using pSG-Neo-JFH1 as a template and the following primers: […]
Purified PCR products were inserted into an NsiI/SnaBI digested pSG-Neo-JFH1 vector by Infusion cloning following the manufacturer's instructions to generate pSG-Neo-JFH1-Nterm_5Ashuttle. […]

Broadly, the pEC50 is −log10 of the EC50, conventionally taken in molar units. Read a low pEC50 as a high EC50. As to `COC(=O)N[C@H](C(=O)N1C[C@]2(CCCOC2)C[C@H]1c1ncc(-c2ccc(-c3ccc4c(ccc5nc([C@@H]6C[C@@H]7CCC[C@@H]7N6C(=O)[C@@H](NC(=O)OC)C(C)C)[nH]c54)c3)cc2)[nH]1)C(C)C` [Compound 16], the pEC50 with GT2a-2a-J6 replicon was 9.31; in test [1] it was 10.92; in test [2], 8.55; in the test on GT2a-6a-EUKH2 replicon it was 10.85.
On the same counts, the results for `COC(=O)N[C@H](C(=O)N1CCC[C@H]1c1nc(-c2ccc(-c3ccc(-c4c[nH]c([C@@H]5CCCN5C(=O)[C@@H](NC(=O)OC)C(C)C)n4)cc3)cc2)c[nH]1)C(C)C` [Daclatasvir, reference compound] are 8.24, 8.47, 6.08 and 9.84.
